Where two headings read alike, the source gives them in different places.
Experiments:
Assay type in all cases: biochemical
[1] = molecular target: T1, reuptake of serotonine (5-HT) in synaptosomes (Rattus norvegicus, UniProt P31652); assay: Inhibition of 5-HT reuptake in synaptosomes; settings: 3H-5-HT, read-out: 5-HT-uptake IC50
T1 construct: in synaptosomes as described in WO 97/16451 (NeuroSearch A/S); from tissue
Procedure: (§1) Compounds were tested for their ability to inhibit the reuptake of the monoamine neurotransmitters dopamine (DA) noradrenaline (NA) and serotonine (5-HT) in synaptosomes as described in WO 97/16451 (NeuroSearch A/S).
(§2) The test values are given as IC50 (the concentration (μM) of the test substance which inhibits the specific binding of ^3H-DA, ^3H-NA, or ^3H-5-HT by 50%).

[2] = molecular target: T2, reuptake of noradrenaline (NA) in synaptosomes (Rattus norvegicus, UniProt Q63380); assay: Inhibition of NA reuptake in synaptosomes
T2 construct: in synaptosomes as described in WO 97/16451 (NeuroSearch A/S); from tissue
Procedure: as §1, §2

[3] = molecular target: T3, reuptake of dopamine (DA) in synaptosomes (Rattus norvegicus, UniProt P23977); assay: Inhibition of DA reuptake in synaptosomes
T3 construct: in synaptosomes as described in WO 97/16451 (NeuroSearch A/S); from tissue
Procedure: as §1, §2

[4] = 3H-NA, synaptosomes, read-out: NA-uptake IC50
[5] = 3H-DA, synaptosomes, read-out: DA-uptake IC50

T3 sequence (P23977 whole entry): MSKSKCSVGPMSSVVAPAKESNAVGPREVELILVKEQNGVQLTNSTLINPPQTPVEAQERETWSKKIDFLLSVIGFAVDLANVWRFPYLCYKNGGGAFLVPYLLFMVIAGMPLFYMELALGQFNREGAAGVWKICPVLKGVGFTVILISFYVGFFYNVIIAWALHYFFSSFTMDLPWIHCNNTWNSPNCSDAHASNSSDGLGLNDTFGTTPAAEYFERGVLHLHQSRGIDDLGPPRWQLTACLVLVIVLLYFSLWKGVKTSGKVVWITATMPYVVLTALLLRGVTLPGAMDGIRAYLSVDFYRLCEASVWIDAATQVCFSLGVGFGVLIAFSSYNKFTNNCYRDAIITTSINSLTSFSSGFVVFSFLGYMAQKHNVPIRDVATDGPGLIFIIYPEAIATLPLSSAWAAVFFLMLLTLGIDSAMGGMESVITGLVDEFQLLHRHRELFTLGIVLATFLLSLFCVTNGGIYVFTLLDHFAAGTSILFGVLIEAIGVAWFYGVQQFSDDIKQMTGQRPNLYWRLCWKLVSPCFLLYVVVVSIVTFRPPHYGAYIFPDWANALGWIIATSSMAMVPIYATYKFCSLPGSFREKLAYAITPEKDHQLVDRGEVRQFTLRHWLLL
T2 sequence (Q63380 1-617): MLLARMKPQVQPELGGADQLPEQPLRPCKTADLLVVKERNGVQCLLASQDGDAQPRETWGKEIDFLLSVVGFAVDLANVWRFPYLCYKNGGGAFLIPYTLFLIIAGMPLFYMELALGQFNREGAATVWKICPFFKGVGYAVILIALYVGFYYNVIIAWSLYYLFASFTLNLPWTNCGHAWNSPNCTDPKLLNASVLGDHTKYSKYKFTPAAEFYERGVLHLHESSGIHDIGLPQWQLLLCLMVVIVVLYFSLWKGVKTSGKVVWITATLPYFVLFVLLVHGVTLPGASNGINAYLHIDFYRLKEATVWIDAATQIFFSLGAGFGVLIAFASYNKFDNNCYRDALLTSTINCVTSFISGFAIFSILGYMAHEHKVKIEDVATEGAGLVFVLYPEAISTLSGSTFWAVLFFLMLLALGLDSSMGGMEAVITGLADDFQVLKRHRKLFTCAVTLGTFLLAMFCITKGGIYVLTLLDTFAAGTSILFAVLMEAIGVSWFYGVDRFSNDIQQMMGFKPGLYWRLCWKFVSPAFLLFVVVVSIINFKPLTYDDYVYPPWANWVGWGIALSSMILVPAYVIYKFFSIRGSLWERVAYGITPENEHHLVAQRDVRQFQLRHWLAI
T1 sequence (P31652 whole entry): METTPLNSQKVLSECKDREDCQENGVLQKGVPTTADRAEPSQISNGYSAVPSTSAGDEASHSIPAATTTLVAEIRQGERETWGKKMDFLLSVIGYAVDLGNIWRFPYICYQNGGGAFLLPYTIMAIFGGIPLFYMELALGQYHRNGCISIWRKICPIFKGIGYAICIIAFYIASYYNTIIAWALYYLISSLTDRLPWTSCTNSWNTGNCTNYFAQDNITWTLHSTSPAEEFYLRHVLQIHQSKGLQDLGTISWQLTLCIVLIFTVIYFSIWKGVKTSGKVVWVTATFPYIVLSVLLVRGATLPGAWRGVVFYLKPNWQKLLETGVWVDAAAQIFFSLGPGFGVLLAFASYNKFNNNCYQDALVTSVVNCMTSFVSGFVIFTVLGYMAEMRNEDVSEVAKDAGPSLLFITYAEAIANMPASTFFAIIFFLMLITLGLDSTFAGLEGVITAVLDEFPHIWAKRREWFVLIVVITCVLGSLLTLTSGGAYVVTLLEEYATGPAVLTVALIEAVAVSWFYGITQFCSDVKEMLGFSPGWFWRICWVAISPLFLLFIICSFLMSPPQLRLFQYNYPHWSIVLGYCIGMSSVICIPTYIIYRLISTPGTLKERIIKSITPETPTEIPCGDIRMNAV

## CCN(C(=O)CCC1CCN(C)CC1)c1ccc(Cl)c(Cl)c1 [N-(3,4-Dichloro-phenyl)-N-ethyl-3-(1-methyl-piperidin-4-yl)-propionamide]
[1]
  IC50: > 1000 nM
[2]; [4]
  IC50: 6.5 nM
[3]; [5]
  IC50: 6.3 nM

## CCN(C(=O)CCC1CCNCC1)c1ccc(Cl)c(Cl)c1 [N-(3,4-Dichloro-phenyl)-N-ethyl-3-piperidin-4-yl-propionamide]
[1]
  IC50: 2100 nM
[2]; [4]
  IC50: 11 nM
[3]; [5]
  IC50: 11 nM

## CCN(C(=O)CCC1CCN(C)CC1)c1ccc(Br)c(Cl)c1 [N-(4-Bromo-3-chloro-phenyl)-N-ethyl-3-(1-methyl-piperidin-4-yl)-propionamide]
[1]
  IC50: > 1000 nM
[2]; [4]
  IC50: 1.3 nM
[3]; [5]
  IC50: 6.8 nM

## CCN(C(=O)CCC1CCNCC1)c1ccc(Br)c(Cl)c1 [N-(4-Bromo-3-chloro-phenyl)-N-ethyl-3-piperidin-4-yl-propionamide]
[1]
  IC50: > 1000 nM
[2]; [4]
  IC50: 2.6 nM
[3]; [5]
  IC50: 3.1 nM

## CCCN(C(=O)CCC1CCNCC1)c1ccc(Cl)c(Cl)c1 [N-(3,4-Dichloro-phenyl)-3-piperidin-4-yl-N-propyl-propionamide]
[1]
  IC50: 1400 nM
[2]; [4]
  IC50: 1.9 nM
[3]; [5]
  IC50: 9.8 nM

## CN(C(=O)CCC1CCNCC1)c1ccc(Cl)c(Cl)c1 [N-(3,4-Dichloro-phenyl)-N-methyl-3-piperidin-4-yl-propionamide]
[1]
  IC50: > 1000 nM
[2]; [4]
  IC50: 770 nM
[3]; [5]
  IC50: 220 nM

## CCCN(C(=O)CCC1CCN(C)CC1)c1ccc(Cl)c(Cl)c1 [N-(3,4-Dichloro-phenyl)-3-(1-methyl-piperidin-4-yl)-N-propyl-propionamide]
[1]
  IC50: 820 nM
[2]
  IC50: 1 nM
[3]
  IC50: 10 nM

## CN1CCC(CCC(=O)N(C)c2ccc(Cl)c(Cl)c2)CC1 [N-(3,4-Dichloro-phenyl)-N-methyl-3-(1-methyl-piperidin-4-yl)-propionamide]
[1]
  IC50: > 1000 nM
[2]; [4]
  IC50: 87 nM
[3]; [5]
  IC50: 330 nM
